Measurements: US9586914B2, “Modulators of C3a receptors” (THE UNIVERSITY OF QUEENSLAND, priority 2011, dated 2017)
Where two headings read alike, the source gives them in different places.

Assays:
C3aR = target: T1, C3aR (Homo sapiens, UniProt Q16581); assay: Calcium mobilization assay in HMDM (agonist/antagonist activity); assay type: cell-based; conditions: for Emax at 10 µM: read-out: % agonist; for EC50: read-out: EC50
T1 construct: peripheral blood mononuclear cells were isolated from buffy coat (obtained from Australian Red Cross Blood Service, Kelvin Grove); endogenous in cells; host or cells: primary human monocyte-derived macrophages (HMDM) differentiated from CD14+ monocytes of donor buffy coat
T1 sequence (Q16581 1-482): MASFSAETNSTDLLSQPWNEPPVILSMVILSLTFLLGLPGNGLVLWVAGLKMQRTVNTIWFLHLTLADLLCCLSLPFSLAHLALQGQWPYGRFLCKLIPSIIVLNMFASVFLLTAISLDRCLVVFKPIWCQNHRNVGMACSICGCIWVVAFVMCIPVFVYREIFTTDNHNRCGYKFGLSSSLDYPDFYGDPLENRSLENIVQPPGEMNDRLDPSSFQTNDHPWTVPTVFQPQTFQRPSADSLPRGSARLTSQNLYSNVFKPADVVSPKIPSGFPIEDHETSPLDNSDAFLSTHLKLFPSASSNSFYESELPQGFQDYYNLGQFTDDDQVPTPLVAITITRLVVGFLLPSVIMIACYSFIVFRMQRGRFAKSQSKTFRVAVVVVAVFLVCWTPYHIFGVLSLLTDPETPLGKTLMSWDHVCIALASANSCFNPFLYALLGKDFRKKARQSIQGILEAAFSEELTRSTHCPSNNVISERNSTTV
Experimental: Harvested HMDM cells were washed with 0.9% NaCl solution by centrifugation at 2500 rpm for 5 min, followed by resuspension of the cell pellet with complete media. Cells were seeded at 5×10^4 cells/well in a 96-well black-wall, clear bottom plate (DKSH, Zurich), and left overnight to adhere at 37° C. On the day of the experiment, supernatant was removed and cells were incubated in dye loading buffer (Hank's Balanced Salt Solution (HBSS) with 4 μM Fluo-3, 25 μL pluronic acid, 1% fetal bovine serum (FBS) and 2.5 mM probenecid) for one hour at 37° C. Cells were then washed twice with HBSS and transferred to a Fluorostar spectrofluorimeter (BMG, Durham N.C.) for oxazole compound injection and fluorescence measurements.
Various compounds were examined in the calcium mobilization assay for agonist or antagonist activity compared to hC3a and to the known antagonist SB290157.
HMDMs were seeded into black-wall, clear bottom 96-well plates (Corning Incorporated, NY) at 50,000 cells/well and left to incubate at 37° C. with 5% CO2 overnight for cells to adhere. The medium was removed before being washed with the assay buffer (1×HBSS, 20 mM HEPES, 2.5 mM probenecid, pH 7.4). To each well was added 100 μL of dye-loading buffer made up of 12 mL calcium buffer, 1% FBS, 25 μL of Fluo-3 dye (final concentration of 4 μM) and 25 μL of 20% pluronic acid. The plate was covered in aluminium foil to protect the light-sensitive dye and left to incubate at 37° C. for 1 h. The dye-loading buffer was removed before the cells were washed with the assay buffer to remove excess loading dye. To each well was added 50 μL of fresh assay buffer before the plate was loaded into a FLIPR (Fluorescent Imaging Plate Reader) that can inject treatments and measure any calcium release. To generate agonist plots, calcium release was monitored for 300 seconds. To generate antagonist plots, calcium release was recorded for 900 seconds, which at the same time would allow incubation for the antagonists. After the initial incubation period, an agonist would be added and the response was recorded for 300 seconds. Intracellular release of calcium was recorded via fluorescence measurements at wavelength of 485 nm for excitation and 520 nm for emission.

C3a receptor (C3aR) = target: T2, C3a receptor (C3aR) (Homo sapiens, UniProt Q16581); assay: Competitive binding with [^125I]-C3a in HMDM; conditions: for remaining activity at 20 µM: 1 h, read-out: %[^125I]-C3a binding
T2 construct: peripheral blood mononuclear cells were isolated from buffy coat (obtained from Australian Red Cross Blood Service, Kelvin Grove); endogenous in cells; host or cells: primary human monocyte-derived macrophages (HMDM) differentiated from CD14+ monocytes of donor buffy coat
T2 sequence (Q16581 1-482): T1 sequence (Q16581 1-482)
Excerpt: For HMDM, peripheral blood mononuclear cells were isolated from buffy coat (obtained from Australian Red Cross Blood Service, Kelvin Grove) using Ficoll-paque density centrifugation (GE Healthcare Bio-Science, Uppsala, Sweden). CD^14+ monocytes were positively selected using CD^14+ MACS magnetic beads (Miltenyi Biotech, Auburn, Calif., USA). […] Cells were harvested by gentle scraping in saline solution and replated for use on Day 7. […] Unbound radioactivity was removed by filtration through glass microfiber filters GF/B (Whatman Iner. […] The filter was washed 3 times with cold buffer (50 mM Tris-HCl) pH 7.4. […] The −log IC50 for each compound was calculated for separate experiments and express as an arithmetic mean standard error (SE). IC50 values were expressed as a geometric mean.

[1] = Table 6, competitive binding with [^125I]-C3a, HMDM, read-out: IC50 (converted)
[2] = Table 6, competitive binding with [^125I]-C3a, HMDM
[3] = Table 9, Ca^2+ mobilization, HMDM
[4] = Table 14, binding affinity for C3aR on HMDM, read-out: -Log IC50 (converted)

SMILES	Emax at 10 µM (C3aR)	IC50 (C3a receptor (C3aR); [1])	further results
COc1ccc(CC(=O)N[C@@H](CC(C)C)c2nc(C(=O)N[C@@H](CCCNC(=N)N)C(=O)O)c(C)o2)cc1 [Compound 39, 4-Methoxy-phenylacetic acid-Leucine-5-Methyl-Oxazole-Arginine]	26%	–	remaining activity at 20 µM (C3a receptor (C3aR)): 40%
Cc1oc([C@H](CC(C)C)NC(=O)CCC(C)C)nc1C(=O)N[C@@H](CCCNC(=N)N)C(=O)O [Compound 35, 4-Methyl valeric acid-Leucine-5-Methyl-Oxazole-Arginine]	95%	–	–
CC(C)C[C@H](NC(=O)OC(C)(C)C)c1nc(C(=O)N[C@@H](Cc2ccc(C(=N)NO)cc2)C(=O)O)co1 [Compound 84, (S)-2-(2-((S)-1-((tert-butoxycarbonyl)amino)-3-methylbutyl)oxazole-4-carboxamido)-3-(4-(N-hydroxycarbamimidoyl)phenyl)propanoic acid]	–	76 nM	–
CC[C@H](C)[C@H](NC(=O)c1ccc(C(=O)c2ccccc2)cc1)c1nc(C(=O)N[C@@H](CCCNC(=N)N)C(=O)O)co1 [Compound 12, 4-Benzoylbenzoic acid-Isoleucine-Oxazole-Arginine-OH]	–	157 nM	pIC50 ± SEM (C3a receptor (C3aR); [2]): 6.80 ± 0.15
CC(C)C[C@H](NC(=O)CC(c1ccccc1)c1ccccc1)c1nc(C(=O)N[C@@H](CCCNC(=N)N)C(=O)O)co1 [Compound 19, 3,3-diphenylpropanoic acid-Leucine-Oxazole-Arginine-OH]	–	754 nM	EC50 (C3aR; [3]): 744 nM
CC(C)C[C@H](NC(=O)OC(C)(C)C)c1nc(C(=O)N[C@@H](CCCNC(=N)N)C(=O)O)c(-c2ccccc2)o1 [Compound 50, Boc-Leucine-5-Phenyl-Oxazole-Arginine]	–	–	Apparent Antagonist Activity pEC50 ± SE (symbol) (C3aR; Table 11): * (The compounds show no agonist activity in calcium mobilisation assays up to 100 μM.); IC50 (C3aR; Table 11, Ca^2+ mobilisation, HMDM, read-out: Apparent Antagonist Activity IC50): 16.5 nM; IC50 (C3a receptor (C3aR); Table 6, competitive binding with [^125I]-C3a, HMDM, read-out: pIC50 ± SEM (converted)): 37.2 nM; IC50 (C3a receptor (C3aR); Table 11, [^125I]-C3a, HMDM, read-out: Receptor Binding Affinity pIC50 ± SE (converted)): 37.2 nM
Cc1oc([C@H](CC(C)C)NC(=O)CC(C)(C)C)nc1C(=O)N[C@@H](CCCNC(=N)N)C(=O)O [Compound 34, 3,3-Dimethylbutanoic acid-Leucine-5-Methyl-Oxazole-Arginine]	70%	–	remaining activity at 20 µM (C3a receptor (C3aR)): 44%
Cc1oc([C@H](CC(C)C)NC(=O)NCc2ccccc2)nc1C(=O)N[C@@H](CCCNC(=N)N)C(=O)O [Compound 46, Benzylisocyanate-Leucine-5-Methyl-Oxazole-Arginine]	50%	–	remaining activity at 20 µM (C3a receptor (C3aR)): 61%
CC[C@H](C)[C@H](NC(=O)c1ccccc1)c1nc(C(=O)N[C@@H](CCCNC(=N)N)C(=O)O)co1 [Compound 6, Benzoyl Isoleucine Oxazole Arginine-OH]	–	26 nM	pEC50 ± SEM (C3aR; [3]): 5.30 ± 0.18; EC50 (C3aR; [3]): 5000 nM; pIC50 ± SEM (C3a receptor (C3aR); [2]): 7.58 ± 0.07
CC(C)C[C@H](NC(=O)C1c2ccccc2-c2ccccc21)c1nc(C(=O)N[C@@H](CCCNC(=N)N)C(=O)O)co1 [Compound 17, 9-Fluorenecarboxylic acid-Leu-Oxazole-Arginine-OH]	–	142 nM	pIC50 ± SEM (C3a receptor (C3aR); [2]): 6.85 ± 0.15
CC(C)C[C@H](NC(=O)OC(C)(C)C)c1nnc(C(=O)N[C@@H](CCCNC(=N)N)C(=O)O)o1 [Compound 83, Boc-Leucine-1-oxa-3,4-diazole-Arginine-OH]	–	1220 nM	–
COc1ccc(CCC(=O)N[C@@H](CC(C)C)c2nc(C(=O)N[C@@H](CCCNC(=N)N)C(=O)O)c(C)o2)cc1 [Compound 41, 3-(4-Methoxyphenyl)propionic acid-Leucine-5-Methyl-Oxazole-Arginine]	44%	–	remaining activity at 20 µM (C3a receptor (C3aR)): 44%
CC(C)(C)OC(=O)N[C@@H](Cc1ccccc1)c1nc(C(=O)N[C@@H](CCCNC(=N)N)C(=O)O)co1 [Compound 3, Boc-L-Phenylalanine-Oxazole-Arg]	–	509 nM	–
N=C(N)NCCC[C@H](NC(=O)c1ccc(C(c2ccccc2)c2ccccc2)o1)C(=O)O [Compound 57, 5-Diphenylmethyl-furan-2-carboxyl-Arg-OH]	–	–	Function at C3aR (agonist / antagonist) (C3aR; text of Example 100): antagonist
Cc1oc([C@H](CC(C)C)NC(=O)c2ccc(Oc3ccccc3)cc2)nc1C(=O)N[C@@H](CCCNC(=N)N)C(=O)O [Compound 49, 4-Phenoxybenzoic acid-Leucine-5-Methyl-Oxazole-Arginine]	105%	–	–
Cc1c(C(=O)N[C@@H](CCCNC(=N)N)C(=O)O)nc(C(c2ccccc2)c2ccccc2)n1C [Compound 97, 2-Benzhydryl-1,5-Dimethyl imidazole-4-carboxyl-Arginine]	–	1140 nM	IC50 (C3a receptor (C3aR); [4]): 1260 nM
Cc1c(C(=O)N[C@@H](CCCNC(=N)N)C(=O)O)nc([C@H](CC(C)C)NC(=O)OC(C)(C)C)n1C [Compound 81, Boc-Leucine-1-methylimidazole-Arginine-OH]	–	–	EC50 (C3aR; [3]): 60 nM
CC(C)(C)OC(=O)N[C@@H](Cc1c[nH]c2ccccc12)c1nc(C(=O)N[C@@H](CCCNC(=N)N)C(=O)O)co1 [Compound 4, Boc-L-Tryptophan-Oxazole-Arg]	–	2290 nM	–
Cc1oc([C@H](CC(C)C)NC(=O)c2ccncc2)nc1C(=O)N[C@@H](CCCNC(=N)N)C(=O)O [Compound 31, Isonicotinic acid-Leucine-5-Methyl-Oxazole-Arginine]	109%	–	–
CC(C)Cc1ccc([C@H](C)C(=O)N[C@@H](CC(C)C)c2nc(C(=O)N[C@@H](CCCNC(=N)N)C(=O)O)co2)cc1 [Compound 14, 2-(4-isobutylphenyl)propanoic acid Leucine-Oxazole-Arginine-OH]	–	1030 nM	–
CC(C)C[C@H](NC(=O)[C@@H](C)c1ccc(N2Cc3ccccc3C2=O)cc1)c1nc(C(=O)N[C@@H](CCCNC(=N)N)C(=O)O)co1 [Compound 15, 2-(4-(1-oxoisoindolin-2-yl)phenyl)propanoic acid Leucine-Oxazole-Arginine-OH]	–	451 nM	–
N=C(N)NCCC[C@H](NC(=O)c1cnc(C(c2ccccc2)c2ccccc2)s1)C(=O)O [Compound 78]	–	–	IC50 (C3a receptor (C3aR); [4]): 3.98 nM
CC(C)C[C@H](NC(=O)OC(C)(C)C)c1nc(C(=O)N[C@@H](CCCNC(=N)N[N+](=O)[O-])C(=O)O)co1 [Compound 89, (S)-2-(2-((S)-1-((tert-butoxycarbonyl)amino)-3-methylbutyl)oxazole-4-carboxamido)-5-(3-nitroguanidino)pentanoic acid]	–	129 nM	–
Cc1ccc(NC(=O)N[C@@H](CC(C)C)c2nc(C(=O)N[C@@H](CCCNC(=N)N)C(=O)O)c(C)o2)cc1 [Compound 45, p-Tolyl isocyanate-Leucine-5-Methyl-Oxazole-Arginine]	64%	–	–
COc1cccc(C(=O)N[C@@H](CC(C)C)c2nc(C(=O)N[C@@H](CCCNC(=N)N)C(=O)O)c(C)o2)c1 [Compound 42, m-Anisic acid-Leucine-5-Methyl-Oxazole-Arginine]	134%	–	–
CC[C@H](C)[C@H](NC(=O)c1ccc(N(C)C)cc1)c1nc(C(=O)N[C@@H](CCCNC(=N)N)C(=O)O)co1 [Compound 11, 4-(Dimethylamino)benzoic acid-Isoleucine-Oxazole-Arginine-OH]	–	800 nM	pIC50 ± SEM (C3a receptor (C3aR); [2]): 6.10 ± 0.16
